Experimental data reported in patent publication US11541065B2, “Compositions and methods for treating brain injury” (UNM RAINFOREST INNOVATIONS, priority 2018, dated 2023).

Key:
COX2 = COX2 protein level in WT and GluN2A-KO mouse neuronal cultures (immunoblot); format: cell-based, mice; details: L-homocysteine 50 μM, four hours
Procedure: Equal protein from total cell lysates obtained from rat and mice neuronal cultures were resolved in 7.5% SDS-PAGE, and subjected to immunoblotting procedure as described earlier (Poddar and Paul, 2009, J Neurochem 110:1095-1106). Blots were analyzed with antibodies as described in each experiment. All primary antibodies (anti-COX2, anti-B-tubulin) and secondary-horse radish peroxidase conjugated antibody concentrations were used according to recommendations provided by the manufacturer. Signals from immune complexes in the blots were developed using West Pico supersignal chemiluminescence reagents and then captured on X-ray films. Densitometric analysis of the images was performed using the Image J software.
Rat and mice neuronal cultures were washed with PBS (pH 7.4), containing sodium pyrophosphate and sodium vanadate as phosphatase inhibitors, and harvested in SDS sample buffer (Laemmli, 1970, Nature 227:680-685). Equal protein from total cell lysates, estimated using BCA kit, was resolved by SDS-PAGE (7.5%) followed by western blotting on PVDF membranes. Immunoblot analysis was performed by first blocking with 5% non-fat dry milk for 1 h at room temperature followed by incubation with either COX2 immunoblot analysis (Poddar and Paul, 2009, J Neurochem 110:1095-1106) as described in each experiment. […]

PGE2 = PGE2 release from WT and GluN2A-KO mouse neuronal cultures; format: cell-based, mice; details: homocysteine 50 μM, four hours
Procedure: Neuron cultures were treated with or without L-homocysteine in the presence or absence of pharmacological inhibitors for the time period specified in each experiment. The medium was collected from each experimental plate and centrifuged at 1000 rpm for five minutes to remove cellular debris. Equal amounts (100 μl) of the supernatant from each sample were used to determine the amount of PGE2 using the PGE2 enzyme immunoassay kit according to the manufacturer's instructions. For measurement of cPLA2 activity, the neuronal cells from the above treated conditions were harvested in ice-cold Tris-buffered saline (pH7.4) containing sodium pyrophosphate as phosphatase inhibitor, sonicated three times with five-second bursts and two minutes on ice between intervals. The lysed cell suspensions were centrifuged at 10,000 rpm for 10 minutes and the supernatant removed. Equal amounts of protein from the supernatant (assessed using BCA protein estimation kit) were estimated for activity of cPLA2 using cPLA2 activity assay kit according to the manufacturer's protocol.
For measurement of PGE2 levels and MCP-1 levels released from neurons, culture medium was collected from each experimental plate and centrifuged at 1000 rpm for five minutes to remove cellular debris. […]

IκB = IκB degradation in rat neuronal cultures (immunoblot); format: cell-based; details: rat neurons, homocysteine 50 μM, four hours, alone
Procedure: Rat and mice neuronal cultures were washed with PBS (pH 7.4), containing sodium pyrophosphate and sodium vanadate as phosphatase inhibitors, and harvested in SDS sample buffer (Laemmli, 1970, Nature 227:680-685). Equal protein from total cell lysates, estimated using BCA kit, was resolved by SDS-PAGE (7.5%) followed by western blotting on PVDF membranes. Immunoblot analysis was performed by first blocking with 5% non-fat dry milk for 1 h at room temperature followed by incubation with either COX2 immunoblot analysis (Poddar and Paul, 2009, J Neurochem 110:1095-1106) as described in each experiment. All primary antibodies and horseradish peroxidase conjugated secondary antibodies were used according to manufacturer's recommendations. Signals from immune complexes in the blots were developed using West Pico supersignal chemiluminescence reagents and then captured on X-ray films. Densitometric analysis of the images was performed using the NIH Image J software.

[1] = test system: hyperhomocysteinemic rats subjected to MCAO; experiment: CatWalk gait analysis after MCAO; format: in vivo, male Wistar rats; details: HHcy rats, 7 days after MCAO, NVP-AAM077 1.2 mg/kg
Procedure: (§1) All rats were subjected to a battery of behavioral tests on day 7 (CatWalk), day 8 (cylinder and rotarod tests) and day 9 (adhesive test) after MCAO to evaluate normal gait, motor coordination and sensory motor functions. Habituation and training (3 days) was performed for one week before MCAO. The first two trainings days were before osmotic pump implantation and the third training day was after pump implantation. An experienced observer blinded to the experimental conditions evaluated all behavioral parameters.
Catwalk: An automated quantitative gait analysis system (Catwalk XT 10.5, Noldus) was used to assess deficits in normal gait in the control, hyperhomocysteinemic and NVP-AAM077 treated hyperhomocysteinemic rats as described earlier (Parkkinen et a., 2013, Stroke Res Treat 2013:410972; Wang et al., 2008, J Cereb Blood Flow Metab 28:1936-50). Briefly, rats were trained to walk on a glass platform or walkway (1.3 m long and 90 mm wide) with a fluorescent light reflected internally in the glass floor as the rats cross the walkway, scattering at points where the paws touch the glass. […] The camera recorded three such complete or successful runs across the walkway and the average of the three runs is reported. An experienced observer, blinded to the experimental group, labeled each paw on the recorded video and paw-related parameters were analyzed. […]

[2] = test system: hyperhomocysteinemic rats subjected to MCAO; experiment: Cylinder test after MCAO; format: in vivo, male Wistar rats; details: HHcy rats, day 8 after MCAO, NVP-AAM077 1.2 mg/kg; untreated HHcy 24.24±2.37%
Procedure: as §1
Cylinder test: Control, hyperhomocysteinemic and NVP-AAM077 treated hyperhomocysteinemic rats were subjected to cylinder test to assess the post-stroke asymmetry in fore-limb use (Balkaya, 2013, J Cereb Blood Flow Metab 33:330-338). The rats were placed individually inside a transparent plexiglass cylinder (diameter 20 cm, height 45 cm). A vertical exploration movement with either the left or right forelimb along the wall was scored as contact of each paw with the glass wall for a total period of 2 minutes. Simultaneous contact by both paws was scored separately. Two trials (10 min rest between trials) were recorded and the percentage use of the affected fore limb was calculated (Liu et al., 2013, Behav Brain Res 257:166-177; Schaar et al., 2010, Exp Transl Stroke Med 2:13).

Row | SMILES | COX2 protein level (COX2; GluN2A-KO mice cultures) | COX2 protein level (COX2; WT mice cultures) | PGE2 release (PGE2; GluN2A-KO mice cultures) | PGE2 release (PGE2; WT mice cultures) | cellular level of IκB (IκB) | print position of the affected side ([1]; untreated HHcy 0.72±0.15) [cm] | print area of the affected forepaw ([1]; untreated HHcy 1.06±0.097) [cm^2] | spontaneous usage of the affected forepaw [2] [%]
1 | N[C@@H](CCS)C(=O)O [L-homocysteine] | fails to augment COX2 protein expression | leads to increase in COX2 protein level | fails to induce PGE2 release | significantly increases PGE2 release | significant decrease in the cellular level of IκB | – | – | –
2 | C[C@H](NC(c1cccc2[nH]c(=O)c(=O)[nH]c12)P(=O)(O)O)c1ccc(Br)cc1 (stereo partly drawn) [NVP-AAM077, ({[(1S)-1-(4-bromophenyl)ethyl]amino}-(2,3-dioxo-1,4-dihydroquinoxalin-5-yl)methyl)phosphonic acid] | – | – | – | – | – | 1.37±0.097 | 1.41±0.092 | 40.51±1.86
